What was measured:
Format in all cases: in vivo, mouse
[1] = tested on: transplanted retinal progenitors; assay: Differentiation of transplanted retinal progenitors in pretreated host retina (immunohistochemistry); conditions: pretreated wild-type hosts, 21 days post transplantation
Method: Mice were anesthetized by intraperitoneal injection of ketamine (62.5 mg/kg) and xylazine (12.5 mg/kg) and transcardially perfused with phosphate buffered saline (PBS) followed by 4% paraformaldehyde in PBS. Retinal flat-mounts or transverse retinal sections (14 μm) were preblocked with PBS containing 3% bovine serum albumin (Sigma-Aldrich, St. Louis, Mo.) and 0.3% Triton X (Sigma-Aldrich) and incubated, first, with primary antibody overnight, and then with secondary antibody for 1 hour at room temperature. The following antibodies were used: Cy3-conjugated monoclonal antibody against GFAP (1:1000; Sigma), Brn-3b (1:200; Santa Cruz Biotechnology; Santa Cruz, Calif.), mouse anti-rhodopsin (1:4000; Rho1D4), chick anti-cone-opsin (1:300), and Cy-2, Cy-3 or Cy-5-conjugated secondary antibody (Jackson ImmunoResearch; West Grove, Pa.). Assessment of morphological integration were quantified by counting EGFP+ cells located outside of transplanted cell clusters in retinal whole-mounts. Statistical significance was determined by either the two tailed student t test or ANOVA.
At 2 days before transplantation, 2 μl of a solution containing either α-AA (1 μg/μl) or saline (control) was injected unilaterally into the subretinal space of recipient wild-type or Gnat1^−/− mice (>2 months old). […]

cone photoreceptor cells = assay: Cone opsin immunohistochemistry of retinal sections of Rho-/- mice
Method: To determine if αAA induces functional neuroregeneration in Rho^−/− mice, αAA was injected subretinally into the left eyes of 6 week-old Rho^−/− mice, while their contralateral eyes were injected with saline and served as controls. After a 4 week survival period to allow regeneration of new photoreceptors, mouse ERG was measured in both eyes and then performed immunohistochemistry to identify photoreceptor cells. Rho^−/− mice lack the rod photoreceptor cell component or ERG a-wave. As cones consist of ˜3% of photoreceptors in mice, it is difficult to assess cone action a-wave; therefore, flicker ERG photometry under cone-isolation conditions was used to measure cone functions. […] The ERG b-wave arises from neural activity downstream of photoreceptors, its presence in the αAA treated eye has a very important implication: not only is the treatment creating new or preserving existing photoreceptors, such photoreceptors are integrating into the existing retinal circuitry in such a way as to elicit activity in downstream neurons (most likely bipolar cells). […] Consistent with the presence of ERG b-waves in αAA-treated eye, light-elicited spiking responses in some of the ganglion cells were observed (n=4/9) (FIG. 15 A, B). […] In contrast, no light-elicited responses in ganglion cells were recorded from the saline-injected eyes (n=4/4, FIG. 14C). […]

Müller glia = assay: Electron microscopy count of Müller cell nuclei in retinal sections; conditions: 3 days after subretinal injection 1 μg/μl, vs saline-injected group
Method: Mice were sacrificed 3 days after receiving the injection of α-AA (1 μg/μl) or saline as controls by injection of overdose of ketamine/xylazine followed by cervical dislocation, and the eyeballs were dissected, fixed with Karnovsky's fixative (pH 7.4) for 24 h. The quadrants of the eyes that received subretinal injection were dissected and embedded in Epon-Araldite. Semi-thin sections (1-2 μm) were stained with phenylenediamine phase staining. The sections were examined and photographed with a transmission electron microscope (EM410; Philips; Eindhoven, The Netherlands). Ten randomly selected retinal sections of each eye were photographed at 1900× magnification, and all Müller glial nuclei in the photomicrograph were counted.
Retinal sections were examined under electron microscopy, in which Müller glia were identified by their characteristic angular nuclei, dense chromatin and dark perinuclear cytoplasm (FIG. 1e-h). […] This was also confirmed by immunolabeling for specific markers of retinal neurons, including photoreceptors (recoverin) and amacrine cells (syntaxin) (FIG. 2).

Muller cells = assay: Müller cell proliferation and trans-differentiation in diseased eyes of Rho-/- mice; conditions: administered directly to the diseased eyes of Rho-/- mice
Description: Photoreceptor cell death can be measured or assessed by electroretinography, and a reduction or absence of a-wave and/or b-waves. […] Furthermore, proliferating Muller cells were also shown to be capable of trans-differentiating into retinal progenitor cells (expressing retinal progenitor markers).

[2] = tested on: rod photoreceptor cell function; assay: Scotopic ERG a-wave after retinal progenitor transplantation in Gnat1-/- mice; conditions: pretreatment plus retinal progenitor cell transplantation, 21 days post transplantation
Method: At 2 days before transplantation, 2 μl of a solution containing either α-AA (1 μg/μl) or saline (control) was injected unilaterally into the subretinal space of recipient wild-type or Gnat1^−/− mice (>2 months old). The procedure for donor cell preparation was essentially as described by Kinouchi et al, 2003, Nat Neurosci, 6:863-868. Briefly, retinal progenitor cells were isolated from postnatal day 0 (P0) EGFP transgenic mice. Cell suspensions containing approximately 1×10^6 dissociated cells were injected slowly through a glass micropipette into the subretinal space of pretreated recipient mice through the same injection site where either saline or α-AA had been injected 2 days prior.
At 21 days post transplantation, Gnat1−/− mice that had received either α-AA or saline-pretreatment followed by retinal progenitor cell transplantation were analyzed by full-field ERG. Mice were dark adapted for 12 hours and then anesthetized by intraperitoneal injection of ketamine (62.5 mg/kg) and xylazine (12.5 mg/kg). […] A total of six scans were taken and averaged; the a-wave amplitudes were measured from baseline to the peak in the cornea-negative direction. […] Statistical significance was calculated using the Student's t test or ANOVA. […]

SMILES: NC(CCCC(=O)O)C(=O)O (stereo not drawn) [α-AA, alpha-aminoadipate]
- EGFP+ cells integrated into the ONL cone-opsin positive [1]: 12%
- EGFP+ cells integrated into the ONL positive for rhodopsin [1]: Approximately 80%
- retinal neuron damage (cone photoreceptor cells; single intraocular injection): does not cause apparent retinal neuron damage
- number of cone photoreceptor cells (cone photoreceptor cells; single subretinal injection at 6 weeks old, vs saline-treated control): increased number of cone photoreceptor cells
- reduction in counts of Müller cell nuclei (Müller glia): 30%
- proliferation of Muller cells (Muller cells): resulted in proliferation of Muller cells
- ERG a-wave (rod photoreceptor response) [2]: a typical a-wave was detected
